Test results: patent US20260337661A1, “BIOMARKERS OF THE INTEGRATED STRESS RESPONSE AND USES THEREOF” (Calico Life Sciences LLC, priority 2023, published 2026)

Legend:
[1] = test system: GDF15; test: GDF15 protein in astrocyte-derived exosomes (ADE) and neuron-derived exosomes (NDE) in plasma of VWM mice (immunoassay); type: in vivo, mouse
Method: GDF15 protein was quantified in astrocyte-derived exosomes (ADEs) or neuron-derived exosomes (NDEs) in plasma using immunoassay. ADEs and NDEs were captured with anti-GLAST antibody and anti-SNAP25 antibody, respectively. GLAST is an astrocyte specific cell-surface protein; SNAP25 is highly expressed on neuronal membrane. The detection of GDF15 was performed by incubation with a specific anti-GDF15 antibody followed by an anti-mouse IgG conjugated to Horseradish peroxidase.

[2] = test system: GDF15; test: GDF15 mRNA levels in the CNS (cerebellum, spinal cord) of VWM mice treated with 2BAct; type: in vivo, mouse; conditions: cerebellum and spinal cord, FIGS. 2C and 2D
Method: (§1) FIGS. 2A and 2B depict gene expression of the ISR signature and GDF15 in the cerebellum (FIG. 2A) and spinal cord (FIG. 2B) of VWM mice and WT mice following 4 months of treatment with 30 mg/kg 2BAct in food pellets or control chow. Samples were also collected after a drug washout period of 2 months.
FIG. 2C and FIG. 2D show GDF15 mRNA levels determined in cerebellum (FIG. 2C) and spinal cord (FIG. 2D) in WT mice, VWM mice, and VWM mice treated with 2BAct for 4 months and 2 months after cessation of 2BAct treatment. *p<0.05, **p<0.01, ***p<0.001 by Mann Whitney.
(§2) In this example, a VWMD mouse model harboring a R191H mutation in eIF2B was used.
(§3) VWM mice and WT mice were treated with 2BAct at 30 mg/kg for four months in food pellets. Subsequently, expressions of ISR signature genes and GDF15 in the cerebellum were determined.

[3] = previously shown; cited from earlier work
[4] = test system: GDF15; test: GDF15 protein levels in CSF and plasma of VWM mice treated with 2BAct; type: in vivo, mouse
Method: FIG. 2E and FIG. 2F show GDF15 protein levels determined in CSF (FIG. 2E) and plasma (FIG. 2F) in WT mice, VWM mice, and VWM mice treated with 2BAct for 4 months and 2 months after cessation of 2BAct treatment. *p<0.05, **p<0.01, ***p<0.001 by Mann Whitney.
as §2, §3

[5] = test system: ISR signature genes; test: Gene expression of the ISR signature in cerebellum and spinal cord of VWM mice treated with 2BAct; type: in vivo, mouse; conditions: 30 mg/kg in food pellets, four months
Method: as §1, §2, §3

[6] = test system: ISR signature genes, including Atf5, Eif4ebp1 and Trib3; conditions: previously shown; cited from earlier work

Q: With `O=C(COc1ccc(Cl)c(F)c1)NC12CC(NC(=O)c3cnc(C(F)F)cn3)(C1)C2` [Compound 2BAct] as the molecule, how does the “GDF15 expression in plasma ADE” value ([1]; 30 mg/kg for 10 days, FIG. 7A) read?
A: The value was “suppressed GDF15 expression in plasma ADE and NDE to the level present in WT mice”.

Q: What about the “GDF15 expression in plasma NDE” value ([1]; 30 mg/kg for 10 days, FIG. 7B) of the same molecule?
A: Its value is “suppressed GDF15 expression in plasma ADE and NDE to the level present in WT mice”.

Q: And the “downmodulation of GDF15 expression on VWM ADE” value ([1]; astrocyte derived exosomes, FIG. 7A)?
A: The value was 2.7 fold.

Q: And the “downmodulation of GDF15 expression on VWM NDE” value ([1]; neuron derived exosomes, FIG. 7B)?
A: Its value is 1.7 fold.

Q: And the “GDF15 mRNA levels in the CNS following treatment” value ([2]; 30 mg/kg in food pellets, four months)?
A: The value was “markedly reduced”.

Q: What about the “GDF15 mRNA levels in the CNS after cessation of treatment” value ([2]; 2 months after cessation of 4-month treatment) of the same molecule?
A: The value was “rebounded to pre-treatment levels”.

Q: What about the motor deficit [3] of the same molecule?
A: The motor deficit was “corrected motor deficit”.

Q: What about the “CSF GDF15 levels after treatment” value ([4]; 30 mg/kg in food pellets, 4-month treatment, FIG. 2E) of the same molecule?
A: The value was “suppressed”.

Q: What about the “plasma GDF15” value ([4]; 30 mg/kg in food pellets, four months, FIG. 2F) of the same molecule?
A: Its value is “did not affect plasma GDF15”.

Q: What about the “CSF GDF15 levels following drug washout” value ([4]; 2 months of drug washout after 4-month treatment, FIG. 2E) of the same molecule?
A: Its value is “returned to pre-dose baseline levels”.

Q: What about the “ISR gene expression signature in the cerebellum” value ([5]; FIG. 2A) of the same molecule?
A: Its value is “inhibited the ISR gene expression signature”.

Q: And the “ISR gene expression signature in the spinal cord” value ([5]; FIG. 2B)?
A: Its value is “inhibited the ISR gene expression signature”.

Q: What about the “ISR signature genes, including Atf5, Eif4ebp1 and Trib3, in the brain” value [6] of the same molecule?
A: The value was “suppress the ISR signature genes”.
